Where a name gives a salt, the structure may show the parent alone. Read-outs that look alike come from different tables or passages of the source.
How the values were obtained:
Neisseria gonorrhoeae = assay: Gyrase MIC, agar dilution method (Protocol 3); assay type: cell-based
Neisseria meningitidis = assay: Gyrase MIC, agar dilution method (Protocol 3); assay type: cell-based; settings: 12 isolates tested
Enterococcus faecium = assay: Gyrase MIC, microdilution broth method (Protocol 1)
Nocardia caviae = assay: MIC determination procedure for Mycobacterium species (Protocol 4); assay type: cell-based; settings: Nocardia otitidiscaviarum; Nocardia caviae 2497; Protocol 4; read-out: MIC
Bacillus cereus = assay: Gyrase MIC, microdilution broth method (Protocol 1); assay type: cell-based
Fusobacterium spp. = assay: Gyrase MIC, agar dilution method (Protocol 3); assay type: cell-based; settings: 16 isolates tested
Bacteroides fragilis = assay: Gyrase MIC, agar dilution method (Protocol 3); assay type: cell-based; settings: 25 isolates tested
Staphylococcus aureus = assay: microbe, parasite or virus in culture; assay type: cell-based
Pseudomonas aeruginosa = assay: Gyrase MIC against Gram negatives, microdilution broth method (Protocol 2)
[1] = Neisseria gonorrhoeae, 13 isolates tested

**Q.** What does the source list for `CCNC(=O)Nc1nc2cc(-c3cnc(C(C)(C)O)nc3)cc([C@H]3CCCO3)c2[nH]1` [Compound 13, methanesulfonic acid salt of 1-ethyl-3-[5-[2-(1-hydroxy-1-methyl-ethyl)pyrimidin-5-yl]-7-[(2R)-tetrahydrofuran-2-yl]-1H-benzimidazol-2-yl]urea]?
**A.** MIC (Neisseria gonorrhoeae; ATCC35541, Neisseria gonorrhoeae ATCC 35541): 1.3 µg/mL; MIC (Neisseria gonorrhoeae; ATCC49226, Neisseria gonorrhoeae ATCC 49226): 2.3 µg/mL; MIC90 (Neisseria gonorrhoeae; [1]): 1 µg/mL; MIC Range (Neisseria gonorrhoeae; [1]): 0.5-1^ μg/ml; MIC90 (Neisseria meningitidis): 0.12 µg/mL; MIC Range (Neisseria meningitidis): 0.015 to 0.25 µg/mL; MIC90 (Enterococcus faecium): 0.5 µg/mL; MIC Range (Enterococcus faecium; 33 isolates tested, Protocol 1): 0.12 to 0.5 µg/mL; MIC (Enterococcus faecium; ATCC49624, Enterococcus faecium ATCC 49624, Protocol 1): 0.25 µg/mL; MIC (Enterococcus faecium; ATCC49624, Enterococcus faecium ATCC 49624 with Laked Horse Blood, Protocol 1): 0.39 µg/mL; MIC (Nocardia caviae): 2 µg/mL; MIC (Bacillus cereus; ATCC10987, Bacillus cereus ATCC 10987): 0.5 µg/mL; MIC (Bacillus cereus; ATCC14579, Bacillus cereus ATCC 14579): 0.5 µg/mL; MIC90 (Fusobacterium spp.): 2 µg/mL; MIC Range (Fusobacterium spp.): 1 to 4 µg/mL; MIC90 (Bacteroides fragilis): > 16 µg/mL; MIC90 (Staphylococcus aureus; 67 isolates tested, Protocol 1): 0.25 µg/mL; MIC Range (Staphylococcus aureus; 67 isolates tested, Protocol 1): 0.03 to 0.5 µg/mL; MIC (Staphylococcus aureus; ATCC29213, Staphylococcus aureus ATCC 29213, Protocol 1, read-out: MIC): 0.13 µg/mL; MIC (Staphylococcus aureus; ATCC29213, Staphylococcus aureus ATCC 29213 GyrB T173I, Protocol 1): 1.29 µg/mL; MIC (Staphylococcus aureus; ATCC29213, Staphylococcus aureus ATCC 29213 with Human Serum, Protocol 1, read-out: MIC): 0.31 µg/mL; MIC (Staphylococcus aureus; ATCC29213, Staphylococcus aureus ATCC 29213 with Mouse Serum, Protocol 1, read-out: MIC): 2 µg/mL; MIC (Staphylococcus aureus; ATCC29213, Staphylococcus aureus ATCC 29213 with Rat Serum, Protocol 1, read-out: MIC): 0.53 µg/mL; MIC (Pseudomonas aeruginosa): 0.33 µg/mL; MIC90 (Pseudomonas aeruginosa): > 8 µg/mL; MIC (Pseudomonas aeruginosa; PAO1): > 16 µg/mL

Reference: patent publication US8481551B2, “Gyrase and topoisomerase IV inhibitors” (Vertex Pharmaceuticals Incorporated, priority 2011, dated 2013)
